{
  "source": "patent US20220142914A1",
  "about": "“SUSPENSION FORMULATIONS OF HIGH LOAD DISPERSIONS” (Austin Research Labs Corp., priority 2018, published 2022)",
  "assay": "Endotoxin (LPS) adsorption capacity and efficiency of sorbents",
  "format": "binding",
  "settings": "96,528 ± 9,726 EU used, about 38-39.5 mg sorbent, n=6",
  "data": [
    {"substance": "Polymycin B, -sulfate [PMB]", "values": [
      {"measurement": "Adsorption Capacity (EU/mg) ± SD", "value": "1,746 ± 265 EU/mg"},
      {"measurement": "Adsorption Efficiency, E (%) ± SD", "value": "69.66 ± 10.58", "unit": "%"},
      {"measurement": "LPS Conc. Post Incubation (EU/ml) ± SD", "value": "760 ± 265", "unit": "EU/ml"},
      {"measurement": "Log10 Reduction ± SD", "value": "0.538 ± 0.142"}
    ]}
  ]
}
